Laboratory results taken from the supplement of paper PMC10307832.

Experiments:
Test in all cases: relative viability (nuclei count vs DMSO), 5 days (fraction); higher = more cells survive
[1] = compound: Nc1ncn([C@H]2C[C@H](O)[C@@H](CO)O2)c(=O)n1 [Decitabine] + NC(=O)Nc1cc(-c2cccc(F)c2)sc1C(=O)N[C@H]1CCCNC1 [AZD7762] (partner 0.2 µM)
Method in brief: (§1)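 Relative viability was taken as the ratio of nuclei in treated wells to nuclei in vehicle wells. Lung cancer cell lines in 1536-well plates received compounds by pin tool one day after seeding, either one drug alone or a fixed anchor-drug dose plus five library-drug doses (not always all listed) in √10 steps. Nuclei were counted on 4× images after 5 days of treatment, and values are medians of duplicate plates.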

[2] = compound: Nc1ncn([C@H]2C[C@H](O)[C@@H](CO)O2)c(=O)n1 [Decitabine] + CCNC(=O)c1noc(-c2cc(C(C)C)c(O)cc2O)c1-c1ccc(CN2CCOCC2)cc1 [Luminespib] (partner 0.01 µM)
Method in brief: as §1

[3] = compound: Nc1ncn([C@H]2C[C@H](O)[C@@H](CO)O2)c(=O)n1 [Decitabine] + CC(C)C[C@H](NC(=O)[C@H](Cc1ccccc1)NC(=O)c1cnccn1)B(O)O [Bortezomib] (partner 0.002 µM)
Method in brief: as §1

[4] = compound: Nc1ncn([C@H]2C[C@H](O)[C@@H](CO)O2)c(=O)n1 [Decitabine] + O=C(CCCCCCC(=O)Nc1ccccc1)NO [Vorinostat] (partner 1 µM)
Method in brief: as §1

Cell Line | relative viability ([1]; first compound 0.04 µM) | relative viability ([1]; first compound 0.1265 µM) | relative viability ([1]; first compound 0.4 µM) | relative viability ([1]; first compound 1.265 µM) | relative viability ([1]; first compound 4 µM) | relative viability ([2]; first compound 0.04 µM) | relative viability ([2]; first compound 0.1265 µM) | relative viability ([2]; first compound 0.4 µM) | relative viability ([2]; first compound 1.265 µM) | relative viability ([2]; first compound 4 µM) | relative viability ([3]; first compound 0.04 µM) | relative viability ([3]; first compound 0.1265 µM) | relative viability ([3]; first compound 0.4 µM) | relative viability ([3]; first compound 1.265 µM) | relative viability ([3]; first compound 4 µM) | relative viability ([4]; first compound 0.04 µM) | relative viability ([4]; first compound 0.1265 µM) | relative viability ([4]; first compound 0.4 µM) | relative viability ([4]; first compound 1.265 µM) | relative viability ([4]; first compound 4 µM)
LOU-NH91 | 0.735 | 0.847 | 0.732 | 0.72 | 0.73 | 0.323 | 0.344 | 0.358 | 0.299 | 0.35 | 0.412 | 0.471 | 0.436 | 0.512 | 0.523 | 0.768 | 0.958 | 0.848 | 0.805 | 0.849
LCLC-103H | 0.746 | 0.728 | 0.649 | 0.639 | 0.551 | 0.863 | 0.829 | 0.685 | 0.594 | 0.472 | 0.985 | 1.04 | 0.966 | 0.9 | 0.749 | 0.653 | 0.81 | 0.628 | 0.511 | 0.561
NCI-H1915 | 0.296 | 0.266 | 0.217 | 0.195 | 0.201 | 0.331 | 0.465 | 0.267 | 0.186 | 0.219 | 0.379 | 0.279 | 0.197 | 0.183 | 0.184 | 0.263 | 0.235 | 0.206 | 0.158 | 0.155
NCI-H1734 | 0.417 | 0.51 | 0.501 | 0.209 | 0.209 | 0.182 | 0.172 | 0.165 | 0.192 | 0.157 | 0.646 | 0.867 | 0.571 | 0.424 | 0.331 | 0.698 | 0.685 | 0.48 | 0.297 | 0.306
HCC-15 | 1.12 | 0.777 | 0.752 | 0.632 | 0.747 | 0.301 | 0.38 | 0.267 | 0.191 | 0.195 | 0.936 | 0.891 | 0.381 | 0.467 | 0.493 | 0.776 | 0.678 | 0.543 | 0.418 | 0.35
NCI-H1355 | 0.442 | 0.473 | 0.376 | 0.267 | 0.241 | 0.538 | 0.483 | 0.454 | 0.298 | 0.258 | 0.826 | 0.583 | 0.517 | 0.305 | 0.297 | 0.496 | 0.554 | 0.34 | 0.3 | 0.256
LU99A | 0.373 | 0.376 | 0.335 | 0.32 | 0.29 | 0.248 | 0.24 | 0.318 | 0.251 | 0.24 | 1.06 | 1.26 | 1.31 | 0.989 | 0.949 | 0.469 | 0.513 | 0.523 | 0.453 | 0.397
LCLC-97TM1 | 0.0916 | 0.108 | 0.0741 | 0.102 | 0.0907 | 0.403 | 0.48 | 0.322 | 0.143 | 0.159 | 0.202 | 0.268 | 0.123 | 0.124 | 0.11 | 0.273 | 0.159 | 0.107 | 0.0989 | 0.0784
LC-2-ad | 0.769 | 0.846 | 0.925 | 0.491 | 0.63 | 0.839 | 0.958 | 0.782 | 0.492 | 0.558 | 0.799 | 0.779 | 0.459 | 0.304 | 0.329 | 0.642 | 0.635 | 0.608 | 0.365 | 0.406
HOP-62 | 0.361 | 0.297 | 0.143 | 0.117 | 0.147 | 0.488 | 0.342 | 0.21 | 0.187 | 0.209 | 0.418 | 0.23 | 0.23 | 0.0953 | 0.0952 | 0.348 | 0.316 | 0.161 | 0.123 | 0.11
NCI-H2347 | 0.734 | 0.67 | 0.69 | 0.398 | 0.433 | 0.472 | 0.393 | 0.515 | 0.453 | 0.36 | – | 0.768 | 0.844 | 0.525 | 0.572 | 0.522 | 0.542 | 0.521 | 0.379 | 0.424
NCI-H2087 | 0.853 | 0.719 | 0.58 | 0.493 | 0.499 | 0.172 | 0.175 | 0.204 | 0.135 | 0.158 | 0.603 | 0.55 | 0.51 | 0.33 | 0.36 | 0.268 | 0.285 | 0.301 | 0.304 | 0.208
EPLC-272H | 0.255 | 0.195 | – | 0.158 | 0.221 | – | 0.561 | 0.249 | 0.227 | 0.321 | 0.884 | 0.57 | – | 0.584 | 0.418 | 0.369 | 0.281 | – | 0.221 | 0.215
LXF-289 | 0.82 | 0.756 | 0.47 | 0.316 | 0.332 | 0.418 | 0.313 | 0.261 | 0.222 | 0.196 | 0.775 | 0.714 | 0.503 | 0.347 | 0.324 | 0.462 | 0.354 | 0.293 | 0.243 | 0.266
RERF-LC-KJ | 0.822 | 0.95 | 0.439 | 0.75 | 0.832 | 1.18 | 1.01 | – | 0.582 | 0.685 | 1.05 | 0.931 | 0.525 | 0.824 | 0.779 | 0.573 | 0.651 | 0.286 | 0.528 | 0.494
NCI-H1755 | 0.634 | 0.463 | 0.56 | 0.467 | 0.419 | 0.451 | 0.528 | 0.441 | 0.394 | 0.278 | 0.814 | 0.877 | 0.808 | 0.492 | 0.381 | 0.637 | 0.608 | 0.611 | 0.403 | 0.429
